According to patent publication US8114902B2, “2-aminobutanol compound and use thereof for medical purposes” (Mitsubishi Tanabe Pharma Corporation, priority 2006, dated 2012):

How the values were obtained:
[1] = Action on heart rate in rat telemetry; type: in vivo, male Sprague-Dawley (IGS) rats; settings: oral administration in 0.5% hydroxypropylmethylcellulose, up to the dose of 10 mg/kg body weight, heart rate measured from 24 hr before to 72 hr after administration
Description: Action on Heart Rate in Rat Telemetry
Male Sprague-Dawley (IGS) rats were anesthetized by intraperitoneal administration of Nembutal (manufactured by DAINIPPON PHARMACEUTICAL CO., LTD.), and a pressure sensor connected to a telemetric transmitter (TL11M2-C50-PTX, manufactured by Data Sciences International) was inserted into the abdominal artery, whereby the transmitter was subcutaneously set in the abdomen. The data of blood pressure and heart rate were recorded by an analysis software (Dataquest A.R.T., Data Sciences International) via a receiver (RPC-1, manufactured by Data Sciences International). After confirmation of the recovery of the circadian rhythm of the heart rate after elapse of 10 days to 2 weeks postoperation, the rats were subjected to the experiment. The compound of the present invention was suspended in 0.5% hydroxypropylmethylcellulose (manufactured by Shin-Etsu Chemical Co., Ltd.) and administered orally. The heart rate was measured from 24 hr before administration to 72 hr after administration.

[2] = test system: mouse peripheral blood lymphocyte count; experiment: Evaluation of mouse peripheral blood lymphocyte count-decreasing effect; type: in vivo, male BALB/cAnNCrj mice; settings: intraperitoneal administration in 20% cyclodextrin, blood collected 24 hr after administration, flow cytometer count
Description: Evaluation of Mouse Peripheral Blood Lymphocyte Count-Decreasing Effect
The compound of the present invention was dissolved or suspended in 20% cyclodextrin (manufactured by NIHON SHOKUHIN KAKO CO., LTD.), and intraperitoneally administered to 7- to 10-week-old male BALB/cAnNCrj mice (Charles River Laboratories Japan, Inc.) at a dose of 0.001-10 mg/kg body weight. At 24 hr after the administration of the compound of the present invention, the peripheral blood (about 0.3 ml) was collected using a tuberculin syringe (manufactured by TERUMO CORPORATION) treated with heparin sodium (manufactured by NovoNordisk) from the postcava of the mice under ether anesthesia. The blood (0.1 ml) was hemolyzed in an automatic hemolysis treatment apparatus (TQ-Prep, manufactured by Beckman Instruments•Coulter) and, using a Flow Cytometer (CYTOMICS FC 500, manufactured by Beckman Instruments•Coulter), the lymphocytes were counted by a gating method using the forward and side scattering of the laser beam as an index and Flow-Count™ Fluorospheres (manufactured by Beckman Instruments•Coulter), which are the standard particles in a known number, as the internal standard. Taking the lymphocyte count of the vehicle group as 100%, the dose necessary for decreasing the lymphocyte count thereof to 50% was calculated and taken as ED50 value (mg/kg body weight).

| Compound | influence on heart rate in rats (telemetry) [1] | mouse peripheral blood lymphocyte count-decreasing effect, ED50 value (dose necessary for decreasing the lymphocyte count to 50% of vehicle group) [2] |
| --- | --- | --- |
| Cc1ccc(Sc2ccc(-c3ccc(CCC(N)(CO)CO)cc3)c(F)c2)cc1 [Example 4, 2-amino-2-{2-[2′-fluoro-4′-(4-methylphenylthio)biphenyl-4-yl]ethyl}propane-1,3-diol] | did not influence the heart rate | 0.05 mg/kg body weight |
| Cc1ccc(Sc2ccc(-c3ccc(CCC(N)(CO)CO)c(Cl)c3)c(F)c2)cc1 [Example 18, 2-amino-2-{2-[3-chloro-2′-fluoro-4′-(4-methylphenylthio)biphenyl-4-yl]ethyl}propane-1,3-diol] | – | 0.04 mg/kg body weight |
